# Measured values as given in patent publication US20180271925A1, “Method For Improving Gingivitis And Periodontitis By Antibacterial, Antioxidant And Anti-Inflammatory Effects And Inhibition Of Alveolar Bone Loss Of Complex Extracts Of Moringa Leaf And Eucommia Bark” (HLSCIENCE CO., LTD., priority 2017, published 2018).
# Experiments:
# Type in all cases: in vivo, rat
# [1] = test system: interleukin (IL)-1β in the gingival tissue; test: IL-1β content in gingival tissue of EPD rats, 14 natural substance extracts; settings: extract 200 mg/kg (IND 5 mg/kg) oral once a day for 10 days, FIG. 1
# Experimental: The gingivitis- and periodontitis-improving effect was evaluated using rats with ligature-induced experimental periodontitis (EPD). 24 hours after the ligature of the cervical portion, each extract dissolved in sterilized distilled water was orally administered at a dosage of 5 mL/kg (200 mg/kg) once a day for 10 days and the change in the amount of interleukin (IL)-1β in the gingival tissue and the alveolar bone volume was observed along with histopathological changes. A group to which 5 mg/kg indomethacin (IND), which is a nonsteroidal anti-inflammatory drug (NSAID), was orally administered was used as a control group. […]
# After EPD for 11 days, the gingival tissue was homogenized and subjected to measurement with the IL-1β rat ELISA kit (Abcam, Cambridge, UK). […] After adding 50 μL of a stop solution to each well, absorbance was measured with a microplate reader (Tecan, Mannedofr, Switzerland) at a wavelength of 450 nm.
# [2] = test system: rats with ligature-induced experimental periodontitis (EPD); test: Alveolar bone volume in EPD rats, 14 natural substance extracts; settings: extract 200 mg/kg (IND 5 mg/kg) oral once a day for 10 days, FIG. 2
# Experimental: The gingivitis- and periodontitis-improving effect was evaluated using rats with ligature-induced experimental periodontitis (EPD). 24 hours after the ligature of the cervical portion, each extract dissolved in sterilized distilled water was orally administered at a dosage of 5 mL/kg (200 mg/kg) once a day for 10 days and the change in the amount of interleukin (IL)-1β in the gingival tissue and the alveolar bone volume was observed along with histopathological changes. A group to which 5 mg/kg indomethacin (IND), which is a nonsteroidal anti-inflammatory drug (NSAID), was orally administered was used as a control group.
# Each of the concentrated pomegranate powder and the 13 extracts containing moringa leaf (balloon flower root, gardeniae fructus, scutellariae radix, moringa, lotus leaf, Chinese mulberry leaf, ginger, peony root, achyranthis radix, eucommia bark, red clover, dandelion and dandelion root) was dissolved in sterilized distilled water to a concentration of 40 mg/mL and orally administered at a dosage of 5 mL/kg (200 mg/kg) from 24 hours after the ligature of the cervical portion once a day for 10 days. […]
# Alveolar bone loss was measured according to the method of Crawford et al. [1987]. […] The area between the end of the gingiva and the end of the incisor between the two teeth subjected to EPD was expressed as mm/rat.
# [3] = test system: osteoclasts in alveolar bone; test: Number of osteoclasts in alveolar bone of EPD rats (TRAP staining); settings: dosage of 200 mg/kg oral once a day for 10 days, FIG. 7
# Experimental: The gingivitis- and periodontitis-improving effect was evaluated using rats with ligature-induced experimental periodontitis (EPD). 9 complex compositions of the moringa leaf extract (MF) and the eucommia bark extract (EC) (MF:EC=1:1, 1:2, 1:4, 1:6, 1:8, 2:1, 4:1, 6:1 and 8:1; mg:mg) dissolved in sterilized distilled water were orally administered at a dosage of 5 mL/kg (200 mg/kg) once a day for 10 days and body weight, alveolar bone, number of viable aerobic bacteria in the oral tissue, interleukin (IL)-1β and tumor necrosis factor (TNF)-α contents in the gingiva, lipid peroxidation (malondialdehyde (MDA) content) and change in the activity of inducible nitric oxide synthase (iNOS) and myeloperoxidase (MPO) were observed together with histopathological changes. […] A group to which 5 mg/kg indomethacin (IND), which is a nonsteroidal anti-inflammatory drug (NSAID), was orally administered was used as a control group. […]
# The number of osteoclasts was determined by staining with TRAP and counting the number of TRAP-positive multinucleated cells. […] The number of TRAP-positive multinucleated osteoclasts (having 3 or more nuclei) formed on the surface of the alveolar bone was counted using an optical microscope.
smiles,measurement,setting,value
"COc1ccc2c(c1)c(CC(=O)O)c(C)n2C(=O)c1ccc(Cl)cc1 [IND, indomethacin]",change in IL-1β content in the gingival tissue as compared to the EPD control group,[1],significantly decrease (p<0.01)
same,change in alveolar bone volume as compared to the EPD control group,[2],significantly increase (p<0.01 or p<0.05)
same,change in the number of osteoclasts as compared to the EPD control group,[3],−50.19%
